The source of these data is patent US10729694B2 (AI Therapeutics, Inc., priority 2015, dated 2020).

Molecules are shown by their SMILES.

Assay [1] relates to representative cancer cell line. The assay is described as follows: Vacuolization and disruption of intracellular trafficking in cells. The conditions noted are these: live cells treated with 500 nM, 24 h.
The subject of a further assay is 456 kinases. In kind it is binding.

In the case of `Cc1cccc(/C=N/Nc2cc(N3CCOCC3)nc(OCCc3ccccn3)n2)c1` [apilimod], in assay [1], the vacuolization entry is reported as “induces vacuolization”. For the same molecule, the “binding to panel of 456 kinases” value in the assay on 456 kinases is reported as “did not bind to any of the 456 kinases tested”.
